According to ChEMBL document CHEMBL1146972, “Specific inhibitors of Plasmodium falciparum thioredoxin reductase as potential antimalarial agents” (Bioorg Med Chem Lett, 2006):

What was measured:
Thioredoxin reductase [1] = target: Thioredoxin reductase (Homo sapiens, UniProt Q16881+Q9NNW7+Q86VQ6); test: Inhibition of human TrxR; format: protein assay
Thioredoxin reductase [2] = target: T1, Thioredoxin reductase (Plasmodium falciparum 3D7, UniProt P61076); test: Inhibition of Plasmodium falciparum TrxR
T1 sequence (P61076 whole entry): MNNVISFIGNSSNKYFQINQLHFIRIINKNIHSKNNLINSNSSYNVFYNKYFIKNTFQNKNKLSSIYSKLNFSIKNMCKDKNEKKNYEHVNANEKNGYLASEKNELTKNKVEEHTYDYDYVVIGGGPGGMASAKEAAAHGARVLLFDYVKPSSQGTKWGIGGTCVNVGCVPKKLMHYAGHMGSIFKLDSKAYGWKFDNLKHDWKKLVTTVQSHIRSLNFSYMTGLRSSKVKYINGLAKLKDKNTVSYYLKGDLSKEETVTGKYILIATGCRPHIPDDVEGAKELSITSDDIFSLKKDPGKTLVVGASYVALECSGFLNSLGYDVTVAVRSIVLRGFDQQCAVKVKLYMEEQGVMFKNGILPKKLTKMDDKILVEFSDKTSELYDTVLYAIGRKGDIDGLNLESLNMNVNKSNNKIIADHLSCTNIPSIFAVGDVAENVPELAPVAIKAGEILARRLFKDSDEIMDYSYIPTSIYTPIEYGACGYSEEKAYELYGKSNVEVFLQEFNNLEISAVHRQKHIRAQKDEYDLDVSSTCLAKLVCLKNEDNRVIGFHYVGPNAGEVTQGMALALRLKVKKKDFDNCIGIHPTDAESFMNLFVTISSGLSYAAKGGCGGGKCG

[3] = target: T2, Glutathione reductase, mitochondrial (Homo sapiens) (UniProt P00390); test: Inhibition of human GR at 2 uM
T2 sequence (whole entry): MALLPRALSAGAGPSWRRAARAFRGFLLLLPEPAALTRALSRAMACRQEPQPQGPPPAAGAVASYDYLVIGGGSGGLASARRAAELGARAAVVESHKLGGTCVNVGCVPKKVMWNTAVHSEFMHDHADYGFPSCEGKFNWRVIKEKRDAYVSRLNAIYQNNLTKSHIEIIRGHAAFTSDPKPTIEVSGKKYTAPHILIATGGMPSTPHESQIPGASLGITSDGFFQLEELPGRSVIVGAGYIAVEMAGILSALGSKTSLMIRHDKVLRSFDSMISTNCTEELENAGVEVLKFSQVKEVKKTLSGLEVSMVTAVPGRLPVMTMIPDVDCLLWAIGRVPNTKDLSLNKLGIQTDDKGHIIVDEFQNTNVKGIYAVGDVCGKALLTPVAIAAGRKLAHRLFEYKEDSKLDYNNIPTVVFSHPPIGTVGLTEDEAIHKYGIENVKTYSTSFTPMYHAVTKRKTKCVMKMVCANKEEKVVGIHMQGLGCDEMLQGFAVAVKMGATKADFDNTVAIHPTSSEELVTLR

Thioredoxin reductase [4] = target: T1, Thioredoxin reductase; test: Binding affinity to Plasmodium falciparum TrxR in presence of thioredoxin
[5] = target: Glutathione reductase (Plasmodium falciparum 3D7) (UniProt O15770); test: Inhibition of Plasmodium falciparum GR at 2 uM
Chain of Glutathione reductase (Plasmodium falciparum 3D7) (O15770 whole entry): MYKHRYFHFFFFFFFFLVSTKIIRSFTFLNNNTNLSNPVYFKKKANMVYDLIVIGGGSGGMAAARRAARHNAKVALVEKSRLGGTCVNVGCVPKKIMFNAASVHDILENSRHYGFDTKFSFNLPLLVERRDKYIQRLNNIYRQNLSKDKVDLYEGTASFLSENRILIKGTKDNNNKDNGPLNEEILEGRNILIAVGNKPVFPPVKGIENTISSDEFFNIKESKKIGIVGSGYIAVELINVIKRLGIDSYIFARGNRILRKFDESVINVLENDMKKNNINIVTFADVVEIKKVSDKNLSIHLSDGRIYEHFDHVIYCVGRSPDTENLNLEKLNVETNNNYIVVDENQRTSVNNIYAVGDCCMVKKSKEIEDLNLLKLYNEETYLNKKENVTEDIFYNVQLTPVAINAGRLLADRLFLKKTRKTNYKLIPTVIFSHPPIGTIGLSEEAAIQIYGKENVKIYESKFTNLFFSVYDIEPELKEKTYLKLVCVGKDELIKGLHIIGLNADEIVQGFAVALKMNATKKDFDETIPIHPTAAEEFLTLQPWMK

Plasmodium falciparum [6] = test: Growth inhibition against Plasmodium falciparum K1; format: functional, organism-based
Thioredoxin reductase [7] = target: T1, Thioredoxin reductase; test: Binding affinity to Plasmodium falciparum TrxR in presence of NADPH
Plasmodium falciparum [8] = test: Inhibition of Plasmodium falciparum K1 as [3H]hypoxanthine uptake; format: functional, organism-based
[9] = target: T3, Thioredoxin reductase (Plasmodium falciparum 3D7) (UniProt P61076); test: Inhibition of Plasmodium falciparum TrxR at 100 uM
T3 sequence (whole entry): T1 sequence (P61076 whole entry)

[10] = target: T3, Thioredoxin reductase (Plasmodium falciparum 3D7); conditions: 2 uM
[11] = target: T3, Thioredoxin reductase (Plasmodium falciparum 3D7); conditions: 100 uM
[12] = target: T3, Thioredoxin reductase (Plasmodium falciparum 3D7); conditions: 2 uM; remark: listed apart in the source

| SMILES | IC50 (Thioredoxin reductase [1]) [µM] | IC50 (Thioredoxin reductase [2]) [µM] | also measured |
| --- | --- | --- | --- |
| O=[N+]([O-])c1ccc2nccnc2c1 | > 200 | 40 |  |
| O=[N+]([O-])c1ccc2nsnc2c1 | 90 | 10 |  |
| O=[N+]([O-])c1cc([N+](=O)[O-])cc(C(F)(F)F)c1 | > 200 | 30 |  |
| O=[N+]([O-])c1cccc2nsnc12 | 50 | 2 | inhibition [3]: 81%; Ki (Thioredoxin reductase [4]): 0.65 µM; inhibition [5]: 69%; IC50 (Plasmodium falciparum [6]): 11 µM; Ki (Thioredoxin reductase [7]): 1 µM; IC50 (Plasmodium falciparum [8]): 2.9 µM |
| O=[N+]([O-])c1cc(C(F)(F)F)ccc1Sc1ccc(C(F)(F)F)cc1[N+](=O)[O-] | > 150 | 20 |  |
| O=[N+]([O-])c1cc(C(F)(F)F)cc([N+](=O)[O-])c1Cl [CHLORALIN] | 100 | 8 |  |
| O=[N+]([O-])c1ccc2c(c1[N+](=O)[O-])OCO2 | 80 | 10 |  |
| O=[N+]([O-])c1ccc2c(c1)OCO2 | > 200 |  | inhibition [9]: < 10% |
| O=[N+]([O-])c1cc2nccnc2cc1[N+](=O)[O-] | 140 | 2 | inhibition [3]: 27%; inhibition [10]: 70%; inhibition [11]: 15%; inhibition [5]: 39%; IC50 (Plasmodium falciparum [6]): 15 µM; inhibition [12]: 15% |
